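Test compounds were applied to cells in 96-well plates for 48 hours at 5 doses. GI50 is the concentration that inhibits growth by half. TGI denotes the concentration required for complete inhibition of growth.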
How the values were obtained:
Assay in all cases: NCI anticancer screen, dose series, 48 h
MCF7 breast = tested on: MCF7 breast
SK-MEL-28 melanoma = tested on: SK-MEL-28 melanoma
ACHN renal = tested on: ACHN renal
SK-OV-3 ovarian = tested on: SK-OV-3 ovarian
RPMI-8226 leukemia = tested on: RPMI-8226 leukemia
NCI-H226 lung = tested on: NCI-H226 lung
OVCAR-3 ovarian = tested on: OVCAR-3 ovarian
OVCAR-4 ovarian = tested on: OVCAR-4 ovarian
786-0 renal = tested on: 786-0 renal
SNB-75 CNS = tested on: SNB-75 CNS

Compound	TGI (MCF7 breast) [µM]	TGI (SK-MEL-28 melanoma) [µM]	TGI (ACHN renal) [µM]	TGI (SK-OV-3 ovarian) [µM]	TGI (RPMI-8226 leukemia) [µM]	TGI (NCI-H226 lung) [µM]	TGI (OVCAR-3 ovarian) [µM]	TGI (OVCAR-4 ovarian) [µM]	TGI (786-0 renal) [µM]	TGI (SNB-75 CNS) [µM]	GI50 (MCF7 breast) [µM]	GI50 (SNB-75 CNS) [µM]	GI50 (SK-MEL-28 melanoma) [µM]	GI50 (ACHN renal) [µM]	GI50 (RPMI-8226 leukemia) [µM]	GI50 (NCI-H226 lung) [µM]	GI50 (OVCAR-3 ovarian) [µM]	GI50 (OVCAR-4 ovarian) [µM]	GI50 (SK-OV-3 ovarian) [µM]
NS(=O)(=O)c1nnc(NC(=O)Nc2ccc(Cl)c(Cl)c2)s1	88.3	39.3	> 100	63.4	51.5	65.8	> 100	> 100	67.5	–	–	–	–	–	–	–	–	–	–
COc1ccc(/C=c2\sc3n(c2=O)CCN=3)cc1	–	> 100	> 100	> 100	–	–	> 100	> 100	–	> 100	–	–	–	–	–	–	–	–	–
CC1=C(Cl)C=CP(=O)(Oc2ccccc2)C1 (configuration not stated)	–	> 100	> 100	–	–	–	> 100	> 100	–	–	–	–	–	–	–	–	–	–	–
COC(=O)[C@@H](O)[C@](O)(CCC(C)C)C(=O)O[C@@H]1C(OC)=C[C@]23CCCN2CCc2cc4c(cc2[C@H]13)OCO4	2.18	2.78	–	8.12	6.06	6.31	7.15	5.77	–	14.1	–	–	–	–	–	–	–	–	–
Oc1ccc(-c2nc3ccc(Br)cc3s2)cc1	74.5	–	62.8	51.4	40.2	39.9	31.8	–	–	–	–	–	–	–	–	–	–	–	–
O=C1CCCCC1CN1CCCCC1 (configuration not stated)	> 100	> 100	> 100	> 100	–	> 100	> 100	> 100	> 100	> 100	–	–	–	–	–	–	–	–	–
CCN(CC)C(=S)N/N=C/c1cc([N+](=O)[O-])ccc1O	7.05	> 100	25.1	16.3	–	12.6	13.3	19.1	68.9	72.7	–	–	–	–	–	–	–	–	–
Oc1ccccc1CNCc1nc2ccccc2[nH]1	> 100	> 100	57.6	–	73.1	87.4	> 100	> 100	> 100	> 100	–	–	–	–	–	–	–	–	–
N[C@@H](CCC(=O)NCP(=O)(O)O)C(=O)O	> 100	> 100	> 100	–	> 100	–	> 100	–	> 100	–	–	–	–	–	–	–	–	–	–
CC(=O)Nn1c(=S)[nH]c2ccccc21	> 100	> 100	> 100	> 100	> 100	> 100	–	> 100	> 100	–	–	–	–	–	–	–	–	–	–
O=C(c1ccccn1)C1(N2CCCCC2)CCCCC1	> 100	> 100	> 100	> 100	> 100	> 100	> 100	> 100	> 100	–	–	–	–	–	–	–	–	–	–
CC1(C(=O)O)CCC2(C)CCC3(C)C(=CC(=O)C4C5(C)CCC(O)C(C)(C)C5CCC43C)C2C1 (configuration not stated)	> 100	52.4	42.2	> 100	–	> 100	37.4	> 100	> 100	> 100	–	–	–	–	–	–	–	–	–
COC(=O)C1CC(C=[N+](C)C)=C(SC)N1C(=O)OCc1ccccc1 (configuration not stated)	> 100	> 100	> 100	> 100	> 100	–	> 100	> 100	> 100	> 100	–	–	–	–	–	–	–	–	–
N#CC(Cc1ccccc1)N(CCC1=CCCCC1)C(c1ccccc1)c1ccccc1 (configuration not stated)	> 100	> 100	> 100	> 100	> 100	–	> 100	> 100	> 100	> 100	–	–	–	–	–	–	–	–	–
COc1ccc(CN2C(=O)/C(=C\c3cc(OC)c(OC)c(OC)c3)c3ccccc32)cc1	15.9	3.74	4.41	–	7.57	9.23	3.22	> 100	–	> 100	2.86	4.08	1.82	2.06	2.47	2.96	1.62	3.25	–
CC(=O)Nc1nc(NC(C)=O)c2[nH]c(CO)nc2n1	> 100	> 100	> 100	> 100	–	> 100	> 100	> 100	> 100	> 100	–	–	–	–	–	–	–	–	–
O=C(Cc1ccc(O)c(O)c1)NCc1c[nH]c2ccccc12	> 100	> 100	–	> 100	> 100	–	> 100	> 100	> 100	> 100	–	–	–	–	–	–	–	–	–
C(=C(c1ccc(OC2CCCCO2)cc1)c1ccc(OC2CCCCO2)cc1)c1ccccc1 (configuration not stated)	1.43	2.41	2.24	2.64	–	3.17	1.75	1.75	1.62	2.13	–	–	–	–	–	–	–	–	–

Compound	TGI (MCF7 breast) [µM]	TGI (SK-MEL-28 melanoma) [µM]	TGI (ACHN renal) [µM]	TGI (SK-OV-3 ovarian) [µM]	TGI (RPMI-8226 leukemia) [µM]	TGI (NCI-H226 lung) [µM]	TGI (OVCAR-3 ovarian) [µM]	TGI (OVCAR-4 ovarian) [µM]	TGI (786-0 renal) [µM]	TGI (SNB-75 CNS) [µM]	GI50 (MCF7 breast) [µM]	GI50 (SNB-75 CNS) [µM]	GI50 (SK-MEL-28 melanoma) [µM]	GI50 (ACHN renal) [µM]	GI50 (RPMI-8226 leukemia) [µM]	GI50 (NCI-H226 lung) [µM]	GI50 (OVCAR-3 ovarian) [µM]	GI50 (OVCAR-4 ovarian) [µM]	GI50 (SK-OV-3 ovarian) [µM]
CCCCCCCC/C=C\CCCCCCCCCCCC(=O)O	33.8	108	–	> 125	110	107	36.5	> 115	–	113	–	–	–	–	–	–	–	–	–
Nc1nc(SCCC/C=C/I)nc2c1ncn2C1OC(COP(=O)(O)O)C(O)C1O (configuration not stated)	–	> 100	> 100	> 100	–	> 100	> 100	> 100	–	> 100	–	–	–	–	–	–	–	–	–
CCOC(=O)Nc1sc2c(c1C#N)CCCC2	> 100	> 100	> 100	> 100	> 100	> 100	> 100	> 100	> 100	–	–	–	–	–	–	–	–	–	–
Nc1nc(-c2ccccc2)nc2oc(-c3cccs3)nc12	> 100	> 100	> 100	–	> 100	> 100	> 100	–	> 100	> 100	–	–	–	–	–	–	–	–	–
Cc1oc2c(cc(O)c3cc(O)ccc32)c2cccc1-2	> 100	> 100	> 100	> 100	> 100	–	> 100	–	> 100	> 100	–	–	–	–	–	–	–	–	–
c1ccc2c3[nH]c(c2c1)=Nc1ccc(cc1)-c1nc2cc(ccc2o1)N=c1[nH]c(c2ccccc12)=Nc1ccc2nc(oc2c1)-c1ccc(cc1)N=3	> 100	> 100	> 100	–	–	–	–	> 100	> 100	–	–	–	–	–	–	–	–	–	–
CCCCOC(=O)Nc1ccc(S(=O)(=O)Nc2ccccc2Cl)cc1	42.1	36.2	65.8	33.8	36.8	–	44.3	41.2	41.8	–	–	–	–	–	–	–	–	–	–
O=c1[nH]c(=S)[nH]c2c1C(c1ccc([N+](=O)[O-])cc1)c1c([nH]c(=S)[nH]c1=O)O2	> 100	> 100	> 100	–	> 100	> 100	> 100	> 100	> 100	–	–	–	–	–	–	–	–	–	–
O=C(/C=C/c1ccc2c(c1)OCO2)c1ccc(O)cc1	23.1	41.1	59.4	35.1	–	37.9	28.9	38.8	3.01	75.7	–	–	–	–	–	–	–	–	–
Cc1ccc(NC(=O)CC2Sc3ccccc3NC2=O)cc1C (configuration not stated)	–	> 100	> 100	> 100	> 100	> 100	> 100	> 100	–	> 100	–	–	–	–	–	–	–	–	–
O=C1c2cc3c(cc2-c2c1c1ccc(F)cc1c(=O)n2C[C@H](O)[C@@H](O)[C@H](O)CO)OCO3	0.151	0.765	–	0.22	4.18	–	0.476	0.874	–	–	0.0119	–	0.195	–	0.422	–	0.0989	0.185	0.0324
COc1ccc(-n2c(C)nc3ccc(NC(=S)Nc4ccccc4)cc3c2=O)cc1	> 100	> 100	> 100	–	> 100	> 100	> 100	> 100	> 100	> 100	–	–	–	–	–	–	–	–	–
O=[N+]([O-])c1ccc2[nH]nc(OCc3ccccc3Cl)c2c1	–	> 100	62.1	31.9	> 100	> 100	73.9	> 100	59.4	> 100	–	–	–	–	–	–	–	–	–
Cc1ccccc1C(=N)c1ccccc1Cc1cccc2ccccc12	48.6	54.1	> 100	98.9	33.3	45	26.6	> 100	41	–	–	–	–	–	–	–	–	–	–
N=c1nnc2ccc(Cl)cc2n1O	> 100	> 100	> 100	> 100	> 100	> 100	–	–	–	> 100	–	–	–	–	–	–	–	–	–
C=CC1(CC/C(=C\[N+](=O)[O-])c2ccc(OC)c(OC)c2)OCC(C)(C)CO1	> 100	50.3	37.9	60.4	–	56	39.8	31.5	37.9	–	–	–	–	–	–	–	–	–	–
CC(=O)Oc1cccc2c1C(=O)CCCC2	> 100	> 100	> 100	> 100	–	> 100	> 100	> 100	> 100	4.78	–	–	–	–	–	–	–	–	–
COc1cc(S(=O)(=O)Nc2nc(-c3ccc(N4C(=O)C(CC(=O)O)SC4c4cccs4)cc3)cs2)ccc1Cl (configuration not stated)	65.8	> 100	> 100	> 100	–	> 100	> 100	66.4	> 100	40.4	–	–	–	–	–	–	–	–	–
